In patent publication US6472348B1, “Pyridone derivatives and herbicides” (Kumiai Chemical Industry Co., Ltd., priority 1996, dated 2002):

How the values were obtained:
Format in all cases: in vivo
Set-up in all cases: scale not given here
[1] = tested on: China jute (Ab); test: Test Example 4: crop plant selectivity by upland field soil treatment (cotton), herbicidal effects; details: evaluated 21st day after application
Summary of the method: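 Cotton and weeds (incl. China jute, pale smartweed, slender amaranth) sown in sand-filled pots and covered with soil, then soil-treated. Grown in greenhouse; herbicidal effect and cotton phytotoxicity scored on day 21 after application against a rating standard.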

[2] = tested on: wheat (Tr); test: Test Example 5: crop plant selectivity by upland field soil treatment (wheat), phytotoxicity; details: 21st day after application
Summary of the method: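 Seeds sown in pots of sand and covered with soil. Soil treatment applied. Plants cultured in a greenhouse. Effects rated by standard scale after 21 days.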

[3] = tested on: soybean (Gl); test: Test Example 6: crop plant selectivity by upland field soil treatment (soybean), phytotoxicity; details: 21st day after application
Summary of the method: (§1)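 Greenhouse pot test with soil-applied compound after sowing soybean and weeds in sand; effects graded on day 21 after application.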

[4] = tested on: China jute (Ab); test: Test Example 6: crop plant selectivity by upland field soil treatment (soybean), herbicidal effects; details: 21st day after application
Summary of the method: as §1

[5] = tested on: common lambsquarters (Ch); test: as above; details: 21st day after application
Summary of the method: as §1

[6] = tested on: green foxtail (Se); test: as above; details: 21st day after application
Summary of the method: as §1

[7] = tested on: pale smartweed (Po); test: as above; details: 21st day after application
Summary of the method: as §1

[8] = tested on: slender amaranth (Am); test: as above; details: 21st day after application
Summary of the method: as §1

[9] = tested on: China jute (Ab); test: Test Example 9: crop plant selectivity by upland field foliage treatment (wheat), herbicidal effects; details: dose 1.6 g ai/10a, 14th day after treatment
Summary of the method: (§2)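 Sand-filled pot, wheat + weeds co-sown; greenhouse 2 wk, then foliage treatment; greenhouse culture continued; visual scoring of weed control and crop injury at 14 d post-treatment per grading scale.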

[10] = tested on: common lambsquarters (Ch); test: as above; details: dose 1.6 g ai/10a, 14th day after treatment
Summary of the method: as §2

[11] = tested on: pale smartweed (Po); test: as above; details: dose 1.6 g ai/10a, 14th day after treatment
Summary of the method: as §2

[12] = tested on: slender amaranth (Am); test: as above; details: dose 1.6 g ai/10a, 14th day after treatment
Summary of the method: as §2

`C=CCOc1cc(-c2ccc(C(F)(F)F)n(C)c2=O)c(F)cc1Cl` [1-16] was tested, and the “Herbicidal effects Ab” value ([1]; dose 1.6 g ai/10 a) was 5, the “Herbicidal effects Ab” value ([1]; dose 6.3 g ai/10 a) was 5 and the “Phytotoxicity Tr” value ([2]; dose 1.6 g ai/10a) was 1. The “Phytotoxicity Tr” value ([2]; dose 6.3 g ai/10a) was 1, the “Phytotoxicity Gl” value ([3]; dose 1.6 g ai/10a) was 1 and the “Herbicidal effects Ab” value ([4]; dose 1.6 g ai/10a) was 5. For the same compound, the “Herbicidal effects Ch” value ([5]; dose 1.6 g ai/10a) was 5, the “Herbicidal effects Se” value ([6]; dose 1.6 g ai/10a) was 5 and the “Herbicidal effects Po” value ([7]; dose 1.6 g ai/10a) was 5. The “Herbicidal effects Am” value ([8]; dose 1.6 g ai/10a) was 5, the “Herbicidal effects Ab” value [9] was 5 and the “Herbicidal effects Ch” value [10] was 5. For the same compound, the “Herbicidal effects Po” value [11] was 5 and the “Herbicidal effects Am” value [12] was 5.

With `C#CCOc1cc(-c2ccc(C(F)(F)F)n(C)c2=O)c(Cl)cc1Cl` [1-30] the “Herbicidal effects Ab” value ([1]; dose 1.6 g ai/10 a) was 5, the “Herbicidal effects Ab” value ([1]; dose 6.3 g ai/10 a) was 5 and the “Phytotoxicity Tr” value ([2]; dose 1.6 g ai/10a) was 2. For the same compound, the “Phytotoxicity Gl” value ([3]; dose 1.6 g ai/10a) was 1, the “Herbicidal effects Ab” value ([4]; dose 1.6 g ai/10a) was 5 and the “Herbicidal effects Ch” value ([5]; dose 1.6 g ai/10a) was 5. For the same compound, the “Herbicidal effects Se” value ([6]; dose 1.6 g ai/10a) was 5, the “Herbicidal effects Po” value ([7]; dose 1.6 g ai/10a) was 5 and the “Herbicidal effects Am” value ([8]; dose 1.6 g ai/10a) was 5. For the same compound, the “Herbicidal effects Ab” value [9] was 5, the “Herbicidal effects Ch” value [10] was 5 and the “Herbicidal effects Po” value [11] was 5. For the same compound, the “Herbicidal effects Am” value [12] was 5.

With `CC(C)Sc1cc(-c2ccc(C(F)(F)F)n(C)c2=O)c(F)cc1Cl` [1-43] the “Herbicidal effects Ab” value ([1]; dose 6.3 g ai/10 a) was 4, the “Phytotoxicity Tr” value ([2]; dose 6.3 g ai/10a) was 1 and the “Phytotoxicity Gl” value ([3]; dose 6.3 g ai/10a) was 1. For the same compound, the “Herbicidal effects Ab” value ([4]; dose 6.3 g ai/10a) was 4, the “Herbicidal effects Ch” value ([5]; dose 6.3 g ai/10a) was 5 and the “Herbicidal effects Se” value ([6]; dose 6.3 g ai/10a) was 5. The “Herbicidal effects Po” value ([7]; dose 6.3 g ai/10a) was 5, the “Herbicidal effects Am” value ([8]; dose 6.3 g ai/10a) was 5 and the “Herbicidal effects Ab” value [9] was 5. The “Herbicidal effects Ch” value [10] was 5, the “Herbicidal effects Po” value [11] was 5 and the “Herbicidal effects Am” value [12] was 5.

In the case of `C#CCSc1cc(-c2ccc(C(F)(F)F)n(C)c2=O)c(F)cc1Cl` [1-44], the “Herbicidal effects Ab” value ([1]; dose 6.3 g ai/10 a) is reported as 5, the “Phytotoxicity Tr” value ([2]; dose 6.3 g ai/10a) is reported as 1 and the “Phytotoxicity Gl” value ([3]; dose 6.3 g ai/10a) is reported as 1. For the same compound, the “Herbicidal effects Ab” value ([4]; dose 6.3 g ai/10a) was 5, the “Herbicidal effects Ch” value ([5]; dose 6.3 g ai/10a) was 5 and the “Herbicidal effects Se” value ([6]; dose 6.3 g ai/10a) was 5. The “Herbicidal effects Po” value ([7]; dose 6.3 g ai/10a) was 5, the “Herbicidal effects Am” value ([8]; dose 6.3 g ai/10a) was 5 and the “Herbicidal effects Ab” value [9] was 5. For the same compound, the “Herbicidal effects Ch” value [10] was 5, the “Herbicidal effects Po” value [11] was 5 and the “Herbicidal effects Am” value [12] was 5.

With `CCOC(=O)c1cc(-c2ccc(C(F)(F)F)n(C)c2=O)c(F)cc1Cl` [1-65] the “Herbicidal effects Ab” value ([1]; dose 1.6 g ai/10 a) was 5, the “Herbicidal effects Ab” value ([1]; dose 6.3 g ai/10 a) was 5 and the “Phytotoxicity Tr” value ([2]; dose 1.6 g ai/10a) was 0. The “Phytotoxicity Tr” value ([2]; dose 6.3 g ai/10a) was 1, the “Phytotoxicity Gl” value ([3]; dose 1.6 g ai/10a) was 1 and the “Phytotoxicity Gl” value ([3]; dose 6.3 g ai/10a) was 1. For the same compound, the “Herbicidal effects Ab” value ([4]; dose 1.6 g ai/10a) was 5, the “Herbicidal effects Ab” value ([4]; dose 6.3 g ai/10a) was 5 and the “Herbicidal effects Ch” value ([5]; dose 1.6 g ai/10a) was 5. For the same compound, the “Herbicidal effects Ch” value ([5]; dose 6.3 g ai/10a) was 5, the “Herbicidal effects Se” value ([6]; dose 1.6 g ai/10a) was 5 and the “Herbicidal effects Se” value ([6]; dose 6.3 g ai/10a) was 5. For the same compound, the “Herbicidal effects Po” value ([7]; dose 1.6 g ai/10a) was 5, the “Herbicidal effects Po” value ([7]; dose 6.3 g ai/10a) was 5 and the “Herbicidal effects Am” value ([8]; dose 1.6 g ai/10a) was 5. For the same compound, the “Herbicidal effects Am” value ([8]; dose 6.3 g ai/10a) was 5, the “Herbicidal effects Ab” value [9] was 5 and the “Herbicidal effects Ch” value [10] was 5. The “Herbicidal effects Po” value [11] was 5 and the “Herbicidal effects Am” value [12] was 5.

In the case of `COCSc1cc(-c2ccc(C(F)(F)F)n(C)c2=O)c(F)cc1Cl` [1-91], the “Herbicidal effects Ab” value ([1]; dose 1.6 g ai/10 a) is reported as 5, the “Herbicidal effects Ab” value ([1]; dose 6.3 g ai/10 a) is reported as 5 and the “Phytotoxicity Tr” value ([2]; dose 1.6 g ai/10a) is reported as 1. The “Phytotoxicity Gl” value ([3]; dose 1.6 g ai/10a) was 0, the “Phytotoxicity Gl” value ([3]; dose 6.3 g ai/10a) was 1 and the “Herbicidal effects Ab” value ([4]; dose 1.6 g ai/10a) was 5. The “Herbicidal effects Ab” value ([4]; dose 6.3 g ai/10a) was 5, the “Herbicidal effects Ch” value ([5]; dose 1.6 g ai/10a) was 5 and the “Herbicidal effects Ch” value ([5]; dose 6.3 g ai/10a) was 5. For the same compound, the “Herbicidal effects Se” value ([6]; dose 1.6 g ai/10a) was 5, the “Herbicidal effects Se” value ([6]; dose 6.3 g ai/10a) was 5 and the “Herbicidal effects Po” value ([7]; dose 1.6 g ai/10a) was 5. The “Herbicidal effects Po” value ([7]; dose 6.3 g ai/10a) was 5, the “Herbicidal effects Am” value ([8]; dose 1.6 g ai/10a) was 5 and the “Herbicidal effects Am” value ([8]; dose 6.3 g ai/10a) was 5. The “Herbicidal effects Ab” value [9] was 5, the “Herbicidal effects Ch” value [10] was 5 and the “Herbicidal effects Po” value [11] was 5. For the same compound, the “Herbicidal effects Am” value [12] was 5.

For `Cn1c(C(F)(F)F)ccc(-c2cc(OCC3CC3)c(Cl)cc2F)c1=O` [1-160], the “Herbicidal effects Ab” value ([1]; dose 6.3 g ai/10 a) was 5, the “Phytotoxicity Tr” value ([2]; dose 6.3 g ai/10a) was 2 and the “Phytotoxicity Gl” value ([3]; dose 6.3 g ai/10a) was 1. For the same compound, the “Herbicidal effects Ab” value ([4]; dose 6.3 g ai/10a) was 5, the “Herbicidal effects Ch” value ([5]; dose 6.3 g ai/10a) was 5 and the “Herbicidal effects Se” value ([6]; dose 6.3 g ai/10a) was 5. The “Herbicidal effects Po” value ([7]; dose 6.3 g ai/10a) was 5, the “Herbicidal effects Am” value ([8]; dose 6.3 g ai/10a) was 5 and the “Herbicidal effects Ab” value [9] was 5. The “Herbicidal effects Ch” value [10] was 5, the “Herbicidal effects Po” value [11] was 5 and the “Herbicidal effects Am” value [12] was 5.

For `Cn1c(C(F)(F)F)ccc(-c2cc(OCCCl)c(Cl)cc2F)c1=O` [1-171], the “Herbicidal effects Ab” value ([1]; dose 6.3 g ai/10 a) was 5, the “Phytotoxicity Tr” value ([2]; dose 6.3 g ai/10a) was 1 and the “Phytotoxicity Gl” value ([3]; dose 6.3 g ai/10a) was 1. The “Herbicidal effects Ab” value ([4]; dose 6.3 g ai/10a) was 5, the “Herbicidal effects Ch” value ([5]; dose 6.3 g ai/10a) was 5 and the “Herbicidal effects Se” value ([6]; dose 6.3 g ai/10a) was 5. For the same compound, the “Herbicidal effects Po” value ([7]; dose 6.3 g ai/10a) was 5, the “Herbicidal effects Am” value ([8]; dose 6.3 g ai/10a) was 5 and the “Herbicidal effects Ab” value [9] was 5. The “Herbicidal effects Ch” value [10] was 5, the “Herbicidal effects Po” value [11] was 5 and the “Herbicidal effects Am” value [12] was 5.

`CCOCOc1cc(-c2ccc(C(F)(F)F)n(C)c2=O)c(F)cc1Cl` [1-181] was tested, and the “Herbicidal effects Ab” value ([1]; dose 6.3 g ai/10 a) was 5, the “Phytotoxicity Tr” value ([2]; dose 6.3 g ai/10a) was 1 and the “Phytotoxicity Gl” value ([3]; dose 6.3 g ai/10a) was 1. The “Herbicidal effects Ab” value ([4]; dose 6.3 g ai/10a) was 5, the “Herbicidal effects Ch” value ([5]; dose 6.3 g ai/10a) was 5 and the “Herbicidal effects Se” value ([6]; dose 6.3 g ai/10a) was 5. The “Herbicidal effects Po” value ([7]; dose 6.3 g ai/10a) was 5, the “Herbicidal effects Am” value ([8]; dose 6.3 g ai/10a) was 5 and the “Herbicidal effects Ab” value [9] was 5. The “Herbicidal effects Ch” value [10] was 5, the “Herbicidal effects Po” value [11] was 5 and the “Herbicidal effects Am” value [12] was 5.

`C#CC(C)Oc1cc(Cl)cc(F)c1-c1ccc(C(F)(F)F)n(C)c1=O` (centres unmarked) [1′-5] was tested, and the “Herbicidal effects Ab” value ([1]; dose 1.6 g ai/10 a) was 5, the “Herbicidal effects Ab” value ([1]; dose 6.3 g ai/10 a) was 5 and the “Phytotoxicity Tr” value ([2]; dose 1.6 g ai/10a) was 1. The “Phytotoxicity Tr” value ([2]; dose 6.3 g ai/10a) was 1, the “Phytotoxicity Gl” value ([3]; dose 1.6 g ai/10a) was 1 and the “Phytotoxicity Gl” value ([3]; dose 6.3 g ai/10a) was 2. For the same compound, the “Herbicidal effects Ab” value ([4]; dose 1.6 g ai/10a) was 5, the “Herbicidal effects Ab” value ([4]; dose 6.3 g ai/10a) was 5 and the “Herbicidal effects Ch” value ([5]; dose 1.6 g ai/10a) was 5. For the same compound, the “Herbicidal effects Ch” value ([5]; dose 6.3 g ai/10a) was 5, the “Herbicidal effects Se” value ([6]; dose 1.6 g ai/10a) was 4 and the “Herbicidal effects Se” value ([6]; dose 6.3 g ai/10a) was 5. The “Herbicidal effects Po” value ([7]; dose 1.6 g ai/10a) was 5, the “Herbicidal effects Po” value ([7]; dose 6.3 g ai/10a) was 5 and the “Herbicidal effects Am” value ([8]; dose 1.6 g ai/10a) was 5. The “Herbicidal effects Am” value ([8]; dose 6.3 g ai/10a) was 5, the “Herbicidal effects Ab” value [9] was 5 and the “Herbicidal effects Ch” value [10] was 5. For the same compound, the “Herbicidal effects Po” value [11] was 5 and the “Herbicidal effects Am” value [12] was 5.
